Experimental data: patent US6420330B1, “Use of quaternary carboxylic acid alkanolamine ester salts as microbicide agents” (Cognis Deutschland GmbH, priority 1997, dated 2002)

Columns and labels:
Assay in all cases: DGHM suspension test, microbicidal activity
Format in all cases: cell-based
[1] = test system: Staphylococcus aureus ATCC 6538
Method: (§1) The microbicidal activity of the quanterary carboxylic acid alkanolamine ester salts used in accordance with the invention was tested against the following selected test germs:
(§2) The effectiveness of the compound to be tested was determined by the suspension test in accordance with the guidelines of the Deutsche Gesellschaft for Hygiene and Mikrobiologie (DGHM). Test solutions containing quatemary carboxylic acid alkanolamine ester salts in the quantities shown in the Tables of 50, 100, 200, 400 and 800 mg/l were prepared using water with a hardness of 17° dH and optionally isopropanol.
(§3) At room temperatures, quantities of 0.1 ml test germ suspension were pipetted into test tubes containing 10 ml of the test solutions described above and mixed. After various contact times of 5, 15, 30 and 60 minutes, 1 ml of material was taken from the test tubes by pipette and transferred to 9 ml inactivator solution (inactivators: 3.0% Tween, 0.3% lecithin, 0.1% histidine). After in activation for at least 5 and at most 30 minutes, the living germ count was determined by plating out onto casein peptone-soybean flour peptone (CaSo)-agar plates. Using a spiral plater, the inactivating mixture was directly plated out onto CaSo-agar. The samples were incubated for 24 to 72 hours at 37° C. and macroscopically evaluated for growth. The destruction time or the residual germ count was determined in this way. The germ count of an unchallenged water control is related to the germ count of the inactivated test solution taking the dilution into account. The higher the value, the better the microbicidal effect. The symbol < means that the logarithmic reductuon factor is below the indicated value or, in the case of the symbol >, above the indicated value. The abbreviation CU stands for “concentration used”.

[2] = test system: Pseudomonas aeruginosa ATCC 15442
Method: as §1, §2, §3

[3] = test system: Candida albicans ATCC 10231
Method: as §1, §2, §3

[4] = CU 50 mg/l, contact time 5 mins.
[5] = CU 50 mg/l, contact time 15 mins.
[6] = CU 50 mg/l, contact time 30 mins.
[7] = CU 50 mg/l, contact time 60 mins.
[8] = CU 100 mg/l, contact time 5 mins.
[9] = CU 100 mg/l, contact time 15 mins.
[10] = CU 100 mg/l, contact time 30 mins.
[11] = CU 100 mg/l, contact time 60 mins.
[12] = CU 200 mg/l, contact time 5 mins.
[13] = CU 200 mg/l, contact time 15 mins.
[14] = CU 200 mg/l, contact time 30 mins.
[15] = CU 200 mg/l, contact time 60 mins.
[16] = CU 400 mg/l, contact time 5 mins.
[17] = CU 400 mg/l, contact time 15 mins.
[18] = CU 400 mg/l, contact time 30 mins.
[19] = CU 400 mg/l, contact time 60 mins.
[20] = CU 800 mg/l, contact time 5 mins.
[21] = CU 800 mg/l, contact time 15 mins.
[22] = CU 800 mg/l, contact time 30 mins.
[23] = CU 800 mg/l, contact time 60 mins.

`CCCCCCCCCCCC(=O)OCC[N+](C)(C)CCOC(=O)CCCCCCCCCCC.COS(=O)(=O)[O-]` [Example 8, dimethyl diethanolammonium dilauric acid ester methosulfate] was tested, and the logarithmic reduction factor [1, 4] was under 1.39, the logarithmic reduction factor [1, 5] was 3.24 and the logarithmic reduction factor [1, 6] was 4.28. For the same compound, the logarithmic reduction factor [1, 7] was 4.23, the logarithmic reduction factor [1, 8] was 1.98 and the logarithmic reduction factor [1, 9] was 3.40. It also gave a logarithmic reduction factor [1, 10] of 5.29, a logarithmic reduction factor [1, 11] of over 5.60 and a logarithmic reduction factor [1, 12] of 2.34. The logarithmic reduction factor [1, 13] was 4.64, the logarithmic reduction factor [1, 14] was over 5.51 and the logarithmic reduction factor [1, 15] was over 5.60. For the same compound, the logarithmic reduction factor [2, 4] was under 1.88, the logarithmic reduction factor [2, 5] was under 1.93 and the logarithmic reduction factor [2, 6] was under 1.80. It also gave a logarithmic reduction factor [2, 7] of under 1.90, a logarithmic reduction factor [2, 8] of under 1.88 and a logarithmic reduction factor [2, 9] of under 1.93. For the same compound, the logarithmic reduction factor [2, 10] was under 1.80, the logarithmic reduction factor [2, 11] was 3.05 and the logarithmic reduction factor [2, 12] was under 1.88. For the same compound, the logarithmic reduction factor [2, 13] was under 1.93, the logarithmic reduction factor [2, 14] was 3.05 and the logarithmic reduction factor [2, 15] was 3.77.
In the case of `CCCCCCCCCC(=O)OCC[N+](C)(CCO)CCOC(=O)CCCCCCCCC.COS(=O)(=O)[O-]` [Example 6, methyl triethanolammonium dicapric acid ester methosulfate], the logarithmic reduction factor [1, 4] is reported as 4.12, the logarithmic reduction factor [1, 5] is reported as over 5.73 and the logarithmic reduction factor [1, 6] is reported as over 5.75. The logarithmic reduction factor [1, 7] was over 5.86, the logarithmic reduction factor [1, 8] was 4.58 and the logarithmic reduction factor [1, 9] was over 5.73. It also gave a logarithmic reduction factor [1, 10] of over 5.75, a logarithmic reduction factor [1, 11] of over 5.86 and a logarithmic reduction factor [1, 12] of 4.55. It also gave a logarithmic reduction factor [1, 13] of over 5.73, a logarithmic reduction factor [1, 14] of over 5.75 and a logarithmic reduction factor [1, 15] of over 5.86. It also gave a logarithmic reduction factor [1, 16] of 4.48, a logarithmic reduction factor [1, 17] of over 5.73 and a logarithmic reduction factor [1, 18] of over 5.75. For the same compound, the logarithmic reduction factor [1, 19] was over 5.86, the logarithmic reduction factor [1, 20] was 5.44 and the logarithmic reduction factor [1, 21] was over 5.73. It also gave a logarithmic reduction factor [1, 22] of over 5.75, a logarithmic reduction factor [1, 23] of over 5.86 and a logarithmic reduction factor [3, 4] of under 0.87. The logarithmic reduction factor [3, 5] was 1.64, the logarithmic reduction factor [3, 6] was 1.93 and the logarithmic reduction factor [3, 7] was 2.62. It also gave a logarithmic reduction factor [3, 8] of 1.27, a logarithmic reduction factor [3, 9] of 3.03 and a logarithmic reduction factor [3, 10] of 3.75. It also gave a logarithmic reduction factor [3, 11] of 4.15, a logarithmic reduction factor [3, 12] of 1.24 and a logarithmic reduction factor [3, 13] of 3.66. It also gave a logarithmic reduction factor [3, 14] of over 4.78, a logarithmic reduction factor [3, 15] of over 4.67 and a logarithmic reduction factor [3, 16] of 1.38. It also gave a logarithmic reduction factor [3, 17] of 3.51, a logarithmic reduction factor [3, 18] of over 4.78 and a logarithmic reduction factor [3, 19] of over 4.67. For the same compound, the logarithmic reduction factor [3, 20] was 1.33, the logarithmic reduction factor [3, 21] was over 4.87 and the logarithmic reduction factor [3, 22] was over 4.78. It also gave a logarithmic reduction factor [3, 23] of over 4.67, a logarithmic reduction factor [2, 4] of under 1.85 and a logarithmic reduction factor [2, 5] of under 1.79. It also gave a logarithmic reduction factor [2, 6] of under 1.71, a logarithmic reduction factor [2, 7] of under 1.81 and a logarithmic reduction factor [2, 8] of under 1.85. It also gave a logarithmic reduction factor [2, 9] of under 1.79, a logarithmic reduction factor [2, 10] of under 1.71 and a logarithmic reduction factor [2, 11] of 3.19. For the same compound, the logarithmic reduction factor [2, 12] was under 1.85, the logarithmic reduction factor [2, 13] was under 1.79 and the logarithmic reduction factor [2, 14] was 3.35. The logarithmic reduction factor [2, 15] was 3.89, the logarithmic reduction factor [2, 16] was under 1.85 and the logarithmic reduction factor [2, 17] was under 1.79. For the same compound, the logarithmic reduction factor [2, 18] was 4.18, the logarithmic reduction factor [2, 19] was over 5.81 and the logarithmic reduction factor [2, 20] was under 1.85. For the same compound, the logarithmic reduction factor [2, 21] was 4.14, the logarithmic reduction factor [2, 22] was 4.76 and the logarithmic reduction factor [2, 23] was over 5.81.
